Measurements from US20110224210A1, “NOVEL BIS-AMIDES AS ANTI-MALARIAL AGENTS” (priority 2008, published 2011).

The molecules below were run on P. falciparum K1 (strain resistant to chloroquine and pyrimethamine), erythrocytic stages (assay: Plasmodium falciparum in vitro assay, [3H] hypoxanthine incorporation). Conditions: Plasmodium falciparum, K1, P. falciparum strain K1; [3H] hypoxanthine incorporation; read-out: IC50 (nM) on K1.
Type: cell-based
Procedure, shortened: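 K1 strain parasites grown in human red cells, 2.5% haematocrit, 0.3% parasitaemia, 37 °C, 4% CO2/3% O2; compounds in seven serial doubling dilutions.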

| SMILES | IC50 [nM] |
| --- | --- |
| COCCN(C)C(=O)[C@H](Cc1ccccc1)N(Cc1ccc(-c2cncnc2)cc1)C(=O)C=Cc1ccc(Cl)cn1 [Example 127, (S)-3-(5-Chloro-pyridin-2-yl)-N-{1-[(2-methoxy-ethyl)-methyl-carbamoyl]-2-phenyl-ethyl}-N-(4-pyrimidin-5-yl-benzyl)-acrylamide] | 21 |
| COCCN(C)C(=O)[C@H](Cc1ccccc1)N(Cc1ccc(-c2cncnc2)cc1)C(=O)C=Cc1ccc(Cl)nc1 [Example 128, (S)-3-(6-Chloro-pyridin-3-yl)-N-{1-[(2-methoxy-ethyl)-methyl-carbamoyl]-2-phenyl-ethyl}-N-(4-pyrimidin-5-yl-benzyl)-acrylamide] | 94 |
| COCCN(C)C(=O)[C@H](Cc1ccccc1)N(Cc1ccc(-c2cncnc2)cc1)C(=O)C=Cc1cnc(OC)nc1 [Example 129, (S)-N-{1-[(2-Methoxy-ethyl)-methyl-carbamoyl]-2-phenyl-ethyl}-3-(2-methoxy-pyrimidin-5-yl)-N-(4-pyrimidin-5-yl-benzyl)-acrylamide] | 19 |
| COCCN(C)C(=O)[C@H](Cc1ccccc1)N(Cc1ccc(-c2cncnc2)cc1)C(=O)C=Cc1ccc(C(F)(F)F)cn1 [Example 130, (S)-N-{1-[(2-Methoxy-ethyl)-methyl-carbamoyl]-2-phenyl-ethyl}-N-(4-pyrimidin-5-yl-benzyl)-3-(5-trifluoromethyl-pyridin-2-yl)-acrylamide] | < 8 |
| COCCN(C)C(=O)[C@H](Cc1ccccc1)N(Cc1ccc(-c2cccnc2)cc1)C(=O)C=Cc1cnc(C)n1C [Example 131, (S)-3-(2,3-Dimethyl-3H-imidazol-4-yl)-N-{1-[(2-methoxy-ethyl)-methyl-carbamoyl]-2-phenyl-ethyl}-N-(4-pyridin-3-yl-benzyl)-acrylamide] | 282 |
| COCCN(C)C(=O)[C@H](Cc1ccccc1)N(Cc1ccc(-c2cccnc2)cc1)C(=O)C=Cc1sc(C)nc1C [Example 132, (S)-3-(2,4-Dimethyl-thiazol-5-yl)-N-{1-[(2-methoxy-ethyl)-methyl-carbamoyl]-2-phenyl-ethyl}-N-(4-pyridin-3-yl-benzyl)-acrylamide] | 28 |
| COCCN(C)C(=O)[C@H](Cc1ccccc1)N(Cc1ccc(-c2cccnc2)cc1)C(=O)C=Cc1nc(C)oc1C [Example 133, (S)-3-(2,5-Dimethyl-oxazol-4-yl)-N-{1-[(2-methoxy-ethyl)-methyl-carbamoyl]-2-phenyl-ethyl}-N-(4-pyridin-3-yl-benzyl)-acrylamide] | 82 |
| COCCN(C)C(=O)[C@H](Cc1ccccc1)N(Cc1ccc(-c2cccnc2)cc1)C(=O)C=Cc1ccc(Cl)nc1 [Example 134, (S)-3-(6-Chloro-pyridin-3-yl)-N-{1-[(2-methoxy-ethyl)-methyl-carbamoyl]-2-phenyl-ethyl}-N-(4-pyridin-3-yl-benzyl)-acrylamide] | 33 |
| COCCN(C)C(=O)[C@H](Cc1ccccc1)N(Cc1ccc(-c2cccnc2)cc1)C(=O)C=Cc1ccc(OC)nc1 [Example 135, (S)-N-{1-[(2-Methoxy-ethyl)-methyl-carbamoyl]-2-phenyl-ethyl}-3-(6-methoxy-pyridin-3-yl)-N-(4-pyridin-3-yl-benzyl)-acrylamide] | < 8 |
| CN(C)C1CCN(C(=O)[C@H](Cc2ccccc2)N(Cc2ccc(N3CCOCC3)nc2)C(=O)C=Cc2ccc(C(F)(F)F)cc2)CC1 [Example 136, (S)-N-[1-Benzyl-2-(4-dimethylamino-piperidin-1-yl)-2-oxo-ethyl]-N-(6-morpholin-4-yl-pyridin-3-ylmethyl)-3-(4-trifluoromethyl-phenyl)-acrylamide] | 74 |
| O=C([C@H](Cc1ccccc1)N(Cc1ccc(N2CCOCC2)nc1)C(=O)C=Cc1ccc(C(F)(F)F)cc1)N1CCC(Cc2ccccc2)CC1 [Example 143, (S)-N-[1-Benzyl-2-(4-benzyl-piperidin-1-yl)-2-oxo-ethyl]-N-(6-morpholin-4-yl-pyridin-3-ylmethyl)-3-(4-trifluoromethyl-phenyl)-acrylamide] | 5 |
| O=C([C@H](Cc1ccccc1)N(Cc1ccc(N2CCOCC2)nc1)C(=O)C=Cc1ccc(C(F)(F)F)nc1)N1CCC(Cc2ccccc2)CC1 [Example 144, (S)-N-[1-Benzyl-2-(4-benzyl-piperidin-1-yl)-2-oxo-ethyl]-N-(6-morpholin-4-yl-pyridin-3-ylmethyl)-3-(6-trifluoromethyl-pyridin-3-yl)-acrylamide] | 24 |
| COc1ccc(C=CC(=O)N(Cc2ccc(N3CCOCC3)nc2)[C@@H](Cc2ccccc2)C(=O)N2CCC(Cc3ccccc3)CC2)cc1 [Example 145, (S)-N-[1-Benzyl-2-(4-benzyl-piperidin-1-yl)-2-oxo-ethyl]-3-(4-methoxy-phenyl)-N-(6-morpholin-4-yl-pyridin-3-ylmethyl)-acrylamide] | 5 |

The remaining lines, values ahead:

| IC50 [nM] | SMILES |
| --- | --- |
| 9 | Cc1ccc(C=CC(=O)N(Cc2ccc(N3CCOCC3)nc2)[C@@H](Cc2ccccc2)C(=O)N2CCC(Cc3ccccc3)CC2)cc1 [Example 146, (S)-N-[1-Benzyl-2-(4-benzyl-piperidin-1-yl)-2-oxo-ethyl]-N-(6-morpholin-4-yl-pyridin-3-ylmethyl)-3-p-tolyl-acrylamide] |
| 77 | Cc1ccc(C=CC(=O)N(Cc2ccc(N3CCOCC3)nc2)[C@@H](Cc2ccccc2)C(=O)N2CCOCC2)cc1 [Example 147, (S)-N-(1-Benzyl-2-morpholin-4-yl-2-oxo-ethyl)-N-(6-morpholin-4-yl-pyridin-3-ylmethyl)-3-p-tolyl-acrylamide] |
| 65 | COc1ccc(C=CC(=O)N(Cc2ccc(N3CCOCC3)nc2)[C@@H](Cc2ccccc2)C(=O)N2CCOCC2)cc1 [Example 148, (S)-N-(1-Benzyl-2-morpholin-4-yl-2-oxo-ethyl)-3-(4-methoxy-phenyl)-N-(6-morpholin-4-yl-pyridin-3-ylmethyl)-acrylamide] |
| 26 | O=C([C@H](Cc1ccccc1)N(Cc1ccc(-c2ccccn2)cc1)C(=O)C=Cc1ccc(C(F)(F)F)cc1)N1CCc2cccnc2C1 [Example 149, (S)-N-[1-Benzyl-2-(5,8-dihydro-6H-[1,7]naphthyridin-7-yl)-2-oxo-ethyl]-N-(4-pyridin-2-yl-benzyl)-3-(4-trifluoromethyl-phenyl)-acrylamide] |
| 319 | CCCCN(CCCC)CCNC(=O)[C@H](Cc1ccccc1)N(Cc1ccc(-c2ccccn2)cc1)C(=O)C=Cc1ccc(C(F)(F)F)cc1 [Example 150] |
| 373 | O=C(NCCN1CCOCC1)[C@H](Cc1ccccc1)N(Cc1ccc(-c2ccccn2)cc1)C(=O)C=Cc1ccc(C(F)(F)F)cc1 [Example 151] |
| 268 | O=C(NCCN1CCCCC1)[C@H](Cc1ccccc1)N(Cc1ccc(-c2ccccn2)cc1)C(=O)C=Cc1ccc(C(F)(F)F)cc1 [Example 153] |
| 420 | O=C(NCCN1CCCCCC1)[C@H](Cc1ccccc1)N(Cc1ccc(-c2ccccn2)cc1)C(=O)C=Cc1ccc(C(F)(F)F)cc1 [Example 154] |
| 327 | CC(C)N(CCNC(=O)[C@H](Cc1ccccc1)N(Cc1ccc(-c2ccccn2)cc1)C(=O)C=Cc1ccc(C(F)(F)F)cc1)C(C)C [Example 155] |
| 382 | CN(C)CCNC(=O)[C@H](Cc1ccccc1)N(Cc1ccc(-c2ccccn2)cc1)C(=O)C=Cc1ccc(C(F)(F)F)cc1 [Example 156] |
